This is an account of results in PMC10035370, “Targeting Tumor Angiogenesis with the Selective VEGFR-3 Inhibitor EVT801 in Combination with Cancer Immunotherapy” (Cancer Research Communications, 2022).

Series [1] relates to BNL-R3 tumors. The series is described as follows: VEGFR3 expressing BNL tumor model (BNL-R3). The series is classed as in vivo, mice. The method, then: A total number of 60 female BALB/c mice were injected subcutaneously on the flank with 2 x 10^6 cells in 250 μL PBS buffer/growth factor reduced Matrigel®. Mice were then kept in a post-operative cabinet at 28 °C until complete recovery. Assuming an ovoid form, tumor volume in mm3 was calculated using digital callipers according to the following formula: V = 0.52 x (width)² x length. On day 7, mice were randomized into 4 groups of 11 mice and 1 group with 16 mice, according to mean tumor volume via cage equalizer software. Subsequently, tumor volume was measured on days 11, 13, 15, 18, 19 and 21 following tumor cell injection. The selected groups received vehicle or EVT801 orally in a volume of 10 mL/kg. Mice body weight was measured daily before dosing. On the day of termination, mice were anaesthetized to facilitate 500 μL blood withdrawal by puncture of the jugular vein. Three mice per group and per time point (i.e., 0.5, 2, 4 and 24 h after the last dosing) were allocated for pharmacokinetic study. Spleens of 3 mice per group were collected, and immune cell populations were separated from dissociated splenocytes via MACS, and subjected to flow cytometry analysis.

Series [2] concerns the target VEGFR-3 (Homo sapiens, UniProt P35916). The series is described as follows: Viability of Ba/F3 cells dependent on VEGFR-3. Set-up: fusion proteins consisting of constructs for IL-3 independent survival and either VEGFR-2 or VEGFR-3 kinase domains; expressed in transfected cells; host or cells: Ba/F3 (stably transduced). The series is classed as cell-based. The method, then:
Ba/F3 cells were transduced and selected to stably express fusion proteins consisting of constructs for IL-3 independent survival and either VEGFR-2 or VEGFR-3 kinase domains or without the kinase domain. Proliferation and survival of cell lines was dependent on expression of the transcript. Cells in logarithmic-phase growth were harvested and 5 x 10^3 cells were distributed into each well of a 384-well plate in 50 µL of medium. Then, 50 nL of EVT801, SAR401849 or their vehicle solvent were added to appropriate wells. After 48 h, viability was determined by addition of 10 µL CellTiterGlo reagent (Promega). Luminescence was determined as relative light units (RLU) in counts per second.

Series [3] is described as follows: Pharmacokinetics in rats. Format: in vivo. The settings on record: rat, plasma; Sprague-Dawley rats, 10 mg/kg; read-out: T1/2 in plasma (converted). The method, then:
Plasma samples and tumor homogenates were mixed with the precipitant solution (acetonitrile containing internal standard). The supernatant (180 µL) was transferred in a 96-well plate and 5 µL were injected. EVT801 and its main metabolite were quantified by LC-MS/MS following standard conditions.

Series [4] deals with NCI-H1703 cells. In words: NCI-H1703 viability (ATP reduction). The following applies: Homo sapiens, in vitro. Format: cell-based. The method, then: NCI-H1703 were seeded in 96-well plates coated with 0.3 % gelatin (5 x 10^3 cells per well) and were incubated in RPMI 0.1 % FCS with VEGF-C (300 ng/mL) or VEGF-D (300 ng/mL) in the absence or presence of increasing doses of EVT801. After 5 days, viable cells were quantified with the cell Titer-glo luminescent cell viability assay (Promega) as previously described (1).

The subject of series [5] is Rip1-Tag2 tumors. The series is described as follows: Rip1-Tag2 transgenic mouse model. Format: in vivo, mice. The method, then: The Rip1-Tag2/transgenic mouse models were used as reported previously ([29]). Briefly, treatment of mice started at the age of 12 weeks. Mice were treated daily for 16 days, and volume of each tumor was measured and calculated as described for the 4T1 mammary carcinoma mouse model below. The tumor burden was calculated as the sum of individual tumor volumes for each mouse. For the survival study, daily treatment started at the age of 12 weeks, and mice were monitored daily to detect moribund mice for euthanasia. CD31-positive vessel density within the tumors were quantified by density index (1 vessel/mm^2) measured using the Definiens software. Individual density indices were plotted as the mean ± SD for each group. Statistical significance was assessed by Kruskall–Wallis followed by Dunnet multiple comparison test.

VEGFR-3, sequence (P35916 845-1173 limits assumed, species assumed): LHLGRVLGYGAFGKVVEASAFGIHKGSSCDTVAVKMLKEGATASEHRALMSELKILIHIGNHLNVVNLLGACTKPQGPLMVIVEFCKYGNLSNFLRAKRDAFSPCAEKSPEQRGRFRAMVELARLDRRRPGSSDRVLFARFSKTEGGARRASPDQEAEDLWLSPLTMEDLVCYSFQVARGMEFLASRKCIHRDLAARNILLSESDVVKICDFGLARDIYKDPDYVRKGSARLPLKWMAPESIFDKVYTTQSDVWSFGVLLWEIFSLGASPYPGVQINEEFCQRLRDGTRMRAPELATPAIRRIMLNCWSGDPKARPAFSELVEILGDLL

For orientation: IC50 means the concentration at which inhibition is half-maximal. Low readings indicate greater potency in that assay, high ones weaker potency in that assay. On to `CCn1c(N)c(-c2ncc[nH]2)c(=O)c2ccc(C#C[C@@](C)(O)COC)nc21` [EVT801], for which, in series [1] (10 mg/kg twice per day), the “T/C ratio, tumor growth” value turned out to be 31%; the “decrease of number of vessels” value is reported as 60%; the “decrease of total vessel surface” value was determined as 35%. In addition, in series [1] (30 mg/kg twice per day), the “T/C ratio, tumor growth” value is on record as 10%; the “decrease of number of vessels” value was 83%; the “decrease of total vessel surface” value came out at 29%. Besides, in series [1] (both doses, 10 and 30 mg/kg twice per day), the tumor hypoxia result was “decreased hypoxia”. Besides, the “infiltration of CD3+ cells in the tumor” value in series [1] (endpoint) is “increased”. The molecule further returned an IC50 in series [2] of 24 nM. In addition, in series [3], the half-life was 144 min. The molecule further gave an IC50 in series [4] of 109 nM. Also, in series [5] (30 mg/kg/day, 2 weeks), the “T/C ratio, tumor volume” value is 63%; the “average number of tumors per pancreas” value is listed as “three”; the “reduction in tumor volume” value is on record as 37%; the “reduction of number of pancreatic tumors” value turned out to be 67%. Further, in series [5] (100 mg/kg/day, 2 weeks), the “T/C ratio, tumor volume” value is given as 16% and the “reduction of number of pancreatic tumors” value came out at 91%. Besides, the “overall survival of the mice” value in series [5] (30 and 100 mg/kg/day) was “dose-dependently increased”.
